# Assay results from US20260297131A1, “COMPOSITIONS AND METHODS FOR PEPTIDE-BASED MODULATORS OF HUMAN PAPILLOMAVIRUS ONCOPROTEIN E6” (priority 2023, published 2026).
# Square brackets hold non-standard residues; d marks the D form. Peptide text beside a SMILES is read from it. * marks the point of attachment. 2Nal = N[C@@H](Cc1ccc2ccccc2c1)C(=O)O; Gly(cPent) = N[C@H](C(=O)O)C1CCCC1; X1 = O=C(Cn1c2ccccc2c2ccccc21)*; Aad = N[C@@H](CCCC(=O)O)C(=O)O; Cba = N[C@@H](CC1CCC1)C(=O)O; Aib = CC(C)(N)C(=O)O; Dha = C=C(N)C(=O)O
# How the values were obtained:
# MBP-16E6 [1] = target: T1, MBP-16E6 (Human papillomavirus 16, UniProt P03126, C104S/C118S/C147S/C87S); details: for mono-crosslink yield at 1 h: 1 μM MBP-16E6, 4 μM Dha peptide; for mono-crosslink in 2 h: 2 h at 37° C., 10 eq. to protein 16E6
# MBP-16E6 [2] = target: T1, MBP-16E6; assay: biochemical
# MBP-16E6 [3] = target: T1, MBP-16E6; details: for improvement of binding relative to peptide 18: apparent Ki; for Ratio to wild-type: N-terminal modified peptides, KD of WT divided by KD
# [4] = target: SARS-CoV-2 3C-Like Protease; details: role: inhibitor; comparison drug; cited from earlier work
# [5] = KD in nM, N-terminal modified peptides, competition mode, N = 2 or 3, SEM of curve fitting
# [6] = competition KD, BLI competition, values in text
# T1 sequence (P03126 whole entry C104S/C118S/C147S/C87S, looked up): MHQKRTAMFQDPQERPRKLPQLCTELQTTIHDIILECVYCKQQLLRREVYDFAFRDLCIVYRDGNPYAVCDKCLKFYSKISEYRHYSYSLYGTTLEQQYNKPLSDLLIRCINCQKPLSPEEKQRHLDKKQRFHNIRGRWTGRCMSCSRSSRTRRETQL
SMILES,mono-crosslink in 2 h (MBP-16E6 [1]),Ki (MBP-16E6 [2]) [nM],Ratio to wild-type (MBP-16E6 [3]),Kd (MBP-16E6 [2]; [5]) [nM],also measured
C=C(NC(=O)[C@H](CC(C)C)NC(=O)[C@H](CC1CCC1)NC(=O)[C@H](CCC(=O)O)NC(=O)C(C)(C)NC(=O)[C@H](CC(C)C)NC(=O)[C@@H](NC(=O)[C@H](Cc1ccc2ccccc2c1)NC(=O)[C@H](CCCC(=O)O)NC(=O)[C@H](C)NC(=O)[C@H](CO)NC(=O)[C@H](CCC(N)=O)NC(=O)[C@@H]1CCCN1C(=O)[C@@H](NC(=O)Cn1c2ccccc2c2ccccc21)[C@@H](C)CC)C1CCCC1)C(N)=O [18-Car-IPQSA-truncEER] (X1-IPQSA[Aad][2Nal][Gly(cPent)]L[Aib]E[Cba]L[Dha]-NH2),quantitatively mono-crosslink,44 ± 11,–,–,mono-crosslink yield at 1 h (MBP-16E6 [1]): 76%
C=C(NC(=O)[C@H](C)NC(=O)[C@H](C)NC(=O)[C@H](CCC(=O)O)NC(=O)C(C)(C)NC(=O)[C@H](C)NC(=O)[C@@H](NC(=O)[C@H](Cc1ccc2ccccc2c1)NC(=O)[C@@H](N)CCCC(=O)O)C1CCCC1)C(=O)N[C@@H](CCC(=O)O)C(=O)N[C@@H](CCC(=O)O)C(=O)N[C@@H](CCCNC(=N)N)C(N)=O [Peptide 18-3L3A] (H-[Aad][2Nal][Gly(cPent)]A[Aib]EAA[Dha]EER-NH2),–,–,–,–,binding to MBP-16E6 (MBP-16E6 [3]; BLI): no observable binding; crosslinking to MBP-16E6 (MBP-16E6 [1]; LC-MS): no observable crosslinking
C=C(NC(=O)[C@H](CC(C)C)NC(=O)[C@H](CC1CCC1)NC(=O)[C@H](CCC(=O)O)NC(=O)C(C)(C)NC(=O)[C@H](CC(C)C)NC(=O)[C@@H](NC(=O)[C@H](Cc1ccc2ccccc2c1)NC(=O)[C@H](CCCC(=O)O)NC(=O)[C@H](C)NC(=O)[C@H](CO)NC(=O)[C@H](CCC(N)=O)NC(=O)[C@@H]1CCCN1C(=O)[C@@H](NC(=O)Cn1c2ccccc2c2ccccc21)[C@@H](C)CC)C1CCCC1)C(=O)N[C@@H](CCC(=O)O)C(=O)N[C@@H](CCC(=O)O)C(=O)N[C@@H](CCCNC(=N)N)C(N)=O [Peptide 18-Car-IPQSA] (X1-IPQSA[Aad][2Nal][Gly(cPent)]L[Aib]E[Cba]L[Dha]EER-NH2),quantitatively mono-crosslink,25 ± 5.5,–,–,improvement of binding relative to peptide 18 (MBP-16E6 [3]): 7 fold; mono-crosslink yield at 1 h (MBP-16E6 [1]): 85%
C=C(NC(=O)[C@H](CC(C)C)NC(=O)[C@H](CC1CCC1)NC(=O)[C@H](CCC(=O)O)NC(=O)C(C)(C)NC(=O)[C@H](CC(C)C)NC(=O)[C@@H](NC(=O)[C@H](Cc1ccc2ccccc2c1)NC(=O)[C@H](CCCC(=O)O)NC(=O)Cn1c2ccccc2c2ccccc21)C1CCCC1)C(=O)N[C@@H](CCC(=O)O)C(=O)N[C@@H](CCC(=O)O)C(=O)N[C@@H](CCCNC(=N)N)C(N)=O [Peptide 18-Car] (X1-[Aad][2Nal][Gly(cPent)]L[Aib]E[Cba]L[Dha]EER-NH2),quantitatively mono-crosslink,96 ± 33,–,–,improvement of binding relative to peptide 18 (MBP-16E6 [3]): 3 fold
C=C(NC(=O)[C@H](CC(C)C)NC(=O)[C@H](CC1CCC1)NC(=O)[C@H](CCC(=O)O)NC(=O)C(C)(C)NC(=O)[C@H](CC(C)C)NC(=O)[C@@H](NC(=O)[C@H](CCCCNC(=O)Cn1c2ccccc2c2ccccc21)NC(=O)[C@H](CCCC(=O)O)NC(C)=O)C1CCCC1)C(=O)N[C@@H](CCC(=O)O)C(=O)N[C@@H](CCC(=O)O)C(=O)N[C@@H](CCCNC(=N)N)C(N)=O [Peptide 18-Naf2Cab] (Ac-[Aad]K(X1)[Gly(cPent)]L[Aib]E[Cba]L[Dha]EER-NH2),quantitatively mono-crosslink,51 ± 11,–,–,mono-crosslink yield at 1 h (MBP-16E6 [1]): 83%
CC[C@H](C)[C@H](NC(=O)c1ccc2cc(O)ccc2c1)C(=O)N1CCC[C@H]1C(=O)N[C@@H](CCC(=O)O)C(=O)N[C@@H](CO)C(=O)N[C@@H](CO)C(=O)N[C@@H](CCC(=O)O)C(=O)N[C@@H](CC(C)C)C(=O)N[C@H](C(=O)N[C@@H](CC(C)C)C(=O)N[C@@H](CCC(N)=O)C(=O)N[C@@H](CCC(=O)O)C(=O)N[C@@H](CC(C)C)C(=O)N[C@@H](CC(C)C)C(=O)NCC(=O)N[C@@H](CCC(=O)O)C(=O)N[C@@H](CCC(=O)O)C(=O)N[C@@H](CCCNC(=N)N)C(=O)N[C@@H](CCCNC(=N)N)C(N)=O)[C@@H](C)O [Peptide N17],–,–,15.3,159 ± 47,–
CC[C@H](C)[C@H](NC(=O)CCCc1ccc2ccc3cccc4ccc1c2c34)C(=O)N1CCC[C@H]1C(=O)N[C@@H](CCC(=O)O)C(=O)N[C@@H](CO)C(=O)N[C@@H](CO)C(=O)N[C@@H](CCC(=O)O)C(=O)N[C@@H](CC(C)C)C(=O)N[C@H](C(=O)N[C@@H](CC(C)C)C(=O)N[C@@H](CCC(N)=O)C(=O)N[C@@H](CCC(=O)O)C(=O)N[C@@H](CC(C)C)C(=O)N[C@@H](CC(C)C)C(=O)NCC(=O)N[C@@H](CCC(=O)O)C(=O)N[C@@H](CCC(=O)O)C(=O)N[C@@H](CCCNC(=N)N)C(=O)N[C@@H](CCCNC(=N)N)C(N)=O)[C@@H](C)O [Peptide N18],–,–,23,106 ± 27,–
CC[C@H](C)[C@H](NC(=O)c1ccc2c3c(cccc13)CC2)C(=O)N1CCC[C@H]1C(=O)N[C@@H](CCC(=O)O)C(=O)N[C@@H](CO)C(=O)N[C@@H](CO)C(=O)N[C@@H](CCC(=O)O)C(=O)N[C@@H](CC(C)C)C(=O)N[C@H](C(=O)N[C@@H](CC(C)C)C(=O)N[C@@H](CCC(N)=O)C(=O)N[C@@H](CCC(=O)O)C(=O)N[C@@H](CC(C)C)C(=O)N[C@@H](CC(C)C)C(=O)NCC(=O)N[C@@H](CCC(=O)O)C(=O)N[C@@H](CCC(=O)O)C(=O)N[C@@H](CCCNC(=N)N)C(=O)N[C@@H](CCCNC(=N)N)C(N)=O)[C@@H](C)O [Peptide N19],–,–,44.4,55 ± 12,Kd (MBP-16E6 [2]; [6]): < 70 nM
CC[C@H](C)[C@H](NC(=O)Cc1cc(=O)oc2cc(OC)ccc12)C(=O)N1CCC[C@H]1C(=O)N[C@@H](CCC(=O)O)C(=O)N[C@@H](CO)C(=O)N[C@@H](CO)C(=O)N[C@@H](CCC(=O)O)C(=O)N[C@@H](CC(C)C)C(=O)N[C@H](C(=O)N[C@@H](CC(C)C)C(=O)N[C@@H](CCC(N)=O)C(=O)N[C@@H](CCC(=O)O)C(=O)N[C@@H](CC(C)C)C(=O)N[C@@H](CC(C)C)C(=O)NCC(=O)N[C@@H](CCC(=O)O)C(=O)N[C@@H](CCC(=O)O)C(=O)N[C@@H](CCCNC(=N)N)C(=O)N[C@@H](CCCNC(=N)N)C(N)=O)[C@@H](C)O [Peptide N20],–,–,11.4,213 ± 47,–
CC[C@H](C)[C@H](NC(=O)[C@@H](N)Cc1ccc(-c2ccccc2)cc1)C(=O)N1CCC[C@H]1C(=O)N[C@@H](CCC(=O)O)C(=O)N[C@@H](CO)C(=O)N[C@@H](CO)C(=O)N[C@@H](CCC(=O)O)C(=O)N[C@@H](CC(C)C)C(=O)N[C@H](C(=O)N[C@@H](CC(C)C)C(=O)N[C@@H](CCC(N)=O)C(=O)N[C@@H](CCC(=O)O)C(=O)N[C@@H](CC(C)C)C(=O)N[C@@H](CC(C)C)C(=O)NCC(=O)N[C@@H](CCC(=O)O)C(=O)N[C@@H](CCC(=O)O)C(=O)N[C@@H](CCCNC(=N)N)C(=O)N[C@@H](CCCNC(=N)N)C(N)=O)[C@@H](C)O [Peptide N21],–,–,1.7,1410 ± 757,decrease in binding by change of terminal group (MBP-16E6 [3]; relative to fluorene-modified N1 / parent modification): ~ 27 fold; Kd (MBP-16E6 [2]; [6]): 1410 nM
CC[C@H](C)[C@H](NC(=O)[C@@H](N)CC1CCCCC1)C(=O)N1CCC[C@H]1C(=O)N[C@@H](CCC(=O)O)C(=O)N[C@@H](CO)C(=O)N[C@@H](CO)C(=O)N[C@@H](CCC(=O)O)C(=O)N[C@@H](CC(C)C)C(=O)N[C@H](C(=O)N[C@@H](CC(C)C)C(=O)N[C@@H](CCC(N)=O)C(=O)N[C@@H](CCC(=O)O)C(=O)N[C@@H](CC(C)C)C(=O)N[C@@H](CC(C)C)C(=O)NCC(=O)N[C@@H](CCC(=O)O)C(=O)N[C@@H](CCC(=O)O)C(=O)N[C@@H](CCCNC(=N)N)C(=O)N[C@@H](CCCNC(=N)N)C(N)=O)[C@@H](C)O [Peptide N22],–,–,1.4,1660 ± 705,–
CC(C)(C)[C@H](NC(=O)C(F)(F)F)C(=O)N1C[C@H]2[C@@H]([C@H]1C(=O)N[C@H](C#N)C[C@@H]1CCNC1=O)C2(C)C [nirmatrelvir],–,–,–,–,kinact/Ki [4]: 55000 M⁻¹ s⁻¹
